Reference: patent US7205295B2, “Benzoxazin-3-ones and derivatives thereof as therapeutic agents” (Warner-Lambert Company LLC, priority 2002, dated 2007)

molecular target: T1, PI3Kγ (p101/p110γ protein) (Homo sapiens, UniProt P48736); assay: PI3Kγ In Vitro Kinase Assay; type: biochemical; conditions: purified recombinant p101/p110γ with G protein β1/γ2 subunits; 20 μM ATP, 25 μM PIP2; 20 minutes at room temperature
T1 construct: HA; made in house; host or cells: Spodoptera frugiperda (Sf9) cells, baculovirus co-infection
Summary of the method: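 Sf9-expressed, purified human p101/p110γ (2.7 nM) was activated by Gβ1/γ2 (57.7 nM) and reacted with 20 μM ATP plus [γ-32P]ATP on PIP2 (25 μM)/PE (300 μM) micelles with 10 mM MgCl2 in HEPES buffer. Reactions ran 20 min at room temperature. Filter-captured radiolabeled PIP3 was counted by scintillation.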

T1 sequence (P48736 whole entry, species assumed): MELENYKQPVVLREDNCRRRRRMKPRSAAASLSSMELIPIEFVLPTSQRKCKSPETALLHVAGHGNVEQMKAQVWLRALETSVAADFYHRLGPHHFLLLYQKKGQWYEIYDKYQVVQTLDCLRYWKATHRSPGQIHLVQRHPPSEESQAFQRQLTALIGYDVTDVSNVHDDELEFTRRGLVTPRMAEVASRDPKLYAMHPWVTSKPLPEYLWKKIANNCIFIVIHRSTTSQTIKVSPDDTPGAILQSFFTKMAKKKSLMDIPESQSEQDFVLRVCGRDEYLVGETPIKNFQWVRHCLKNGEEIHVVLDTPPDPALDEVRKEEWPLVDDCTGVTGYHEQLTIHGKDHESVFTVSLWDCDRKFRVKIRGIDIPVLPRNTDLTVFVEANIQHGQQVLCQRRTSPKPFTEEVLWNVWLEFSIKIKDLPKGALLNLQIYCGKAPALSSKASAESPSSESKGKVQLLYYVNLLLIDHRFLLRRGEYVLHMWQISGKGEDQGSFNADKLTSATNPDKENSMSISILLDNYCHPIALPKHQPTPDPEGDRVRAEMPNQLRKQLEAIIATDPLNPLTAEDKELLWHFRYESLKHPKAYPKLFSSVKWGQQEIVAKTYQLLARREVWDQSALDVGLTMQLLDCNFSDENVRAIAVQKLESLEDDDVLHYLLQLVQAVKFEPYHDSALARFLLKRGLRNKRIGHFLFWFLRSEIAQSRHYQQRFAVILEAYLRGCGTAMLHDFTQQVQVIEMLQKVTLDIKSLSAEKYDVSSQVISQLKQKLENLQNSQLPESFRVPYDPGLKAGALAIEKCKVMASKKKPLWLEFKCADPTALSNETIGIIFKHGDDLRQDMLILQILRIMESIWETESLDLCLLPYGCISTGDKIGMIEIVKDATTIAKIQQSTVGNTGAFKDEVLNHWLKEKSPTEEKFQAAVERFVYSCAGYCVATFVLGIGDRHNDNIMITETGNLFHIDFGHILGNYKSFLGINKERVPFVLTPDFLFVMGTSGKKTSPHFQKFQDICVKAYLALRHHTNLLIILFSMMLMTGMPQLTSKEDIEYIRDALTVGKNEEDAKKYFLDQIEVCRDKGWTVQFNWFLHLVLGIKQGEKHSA
T1 sequence (Q8WYR1 whole entry partner, species assumed): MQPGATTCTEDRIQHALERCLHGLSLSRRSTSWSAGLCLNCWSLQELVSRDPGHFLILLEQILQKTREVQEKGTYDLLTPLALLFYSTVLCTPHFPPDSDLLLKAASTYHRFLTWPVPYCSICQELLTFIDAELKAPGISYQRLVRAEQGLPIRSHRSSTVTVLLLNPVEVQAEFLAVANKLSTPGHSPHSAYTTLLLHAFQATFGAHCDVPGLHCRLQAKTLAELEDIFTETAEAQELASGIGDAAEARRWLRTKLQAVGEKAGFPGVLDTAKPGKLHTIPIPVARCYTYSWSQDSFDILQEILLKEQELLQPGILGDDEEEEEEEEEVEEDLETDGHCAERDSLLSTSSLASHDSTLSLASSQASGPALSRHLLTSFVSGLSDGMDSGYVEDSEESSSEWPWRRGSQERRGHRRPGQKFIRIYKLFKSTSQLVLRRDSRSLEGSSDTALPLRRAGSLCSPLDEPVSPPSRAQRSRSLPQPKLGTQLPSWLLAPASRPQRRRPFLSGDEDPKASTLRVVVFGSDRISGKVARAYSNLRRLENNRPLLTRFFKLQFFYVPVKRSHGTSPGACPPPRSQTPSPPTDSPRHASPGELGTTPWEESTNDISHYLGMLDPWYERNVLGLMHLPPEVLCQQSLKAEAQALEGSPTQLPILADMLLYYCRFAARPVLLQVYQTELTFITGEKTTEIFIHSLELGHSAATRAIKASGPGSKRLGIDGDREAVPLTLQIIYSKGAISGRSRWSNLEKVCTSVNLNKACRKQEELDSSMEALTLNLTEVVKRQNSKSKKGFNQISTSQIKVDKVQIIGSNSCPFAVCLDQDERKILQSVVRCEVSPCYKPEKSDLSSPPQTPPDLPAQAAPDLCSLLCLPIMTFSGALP

Structure (SMILES) | IC50 [nM]
O=C1NC(=S)SC1=Cc1ccc2c(c1)N(Cc1cc(Cl)nc(Cl)c1)C(=O)CO2 [Example 225, 4-(2,6-Dichloro-pyridin-4-ylmethyl)-6-(4-oxo-2-thioxo-thiazolidin-5-ylidenemethyl)-4H-1,4-benzoxazin-3-one] | 49
O=C1NC(=O)C(=Cc2ccc3c(c2)N(Cc2cc(Cl)nc(Cl)c2)C(=O)CO3)S1 [Example 226, 5-[4-(2,6-Dichloro-pyridin-4-ylmethyl)-3-oxo-3,4-dihydro-2H-1,4-benzoxazin-6-ylmethylene]-thiazolidine-2,4-dione] | 34200
O=C1NC(=O)C(=Cc2ccc3c(c2)N(Cc2ccncc2)C(=O)CO3)S1 [Example 227, 5-(3-Oxo-4-pyridin-4-ylmethyl-3,4-dihydro-2H-1,4-benzoxazin-6-ylmethylene)-thiazolidine-2,4-dione] | 48
COC(=O)c1nc(CN2C(=O)COc3ccc(C=C4SC(=S)NC4=O)cc32)ncc1OC [Example 231, 5-Methoxy-2-[3-oxo-6-(4-oxo-2-thioxo-thiazolidin-5-ylidenemethyl)-2,3-dihydro-1,4-benzoxazin-4-ylmethyl]-pyrimidine-4-carboxylic acid methyl ester] | 50
Cc1cc(C)nc(CN2C(=O)COc3ccc(C=C4SC(=S)NC4=O)cc32)n1 [Example 232, 4-(4,6-Dimethyl-pyrimidine-2-ylmethyl)-6-(4-oxo-2-thioxo-thiazolidin-5-ylidenemethyl)-4H-benzo[1,4]oxazin-3-one] | 125
CC(C)(C)c1cc(C(C)(C)C)nc(CN2C(=O)COc3ccc(CC4SC(=S)NC4=O)cc32)n1 (stereo not drawn) [Example 234, 4-(4,6-Di-tert-butyl-pyrimidin-2-ylmethyl)-6-(4-oxo-2-thioxo-thazolidin-5-ylmethyl)-4H-benzo[1,4]oxazin-3-one] | 2070
CC(C)(C)c1cc(C(C)(C)C)nc(CN2C(=O)COc3c(F)cc(CC4SC(=S)NC4=O)cc32)n1 (stereo not drawn) [Example 235, 4-(4,6-Di-tert-butyl-pyrimidin-2-ylmethyl)-8-fluoro-6-(4-oxo-2-thioxo-thazolidin-5-ylmethyl)-4H-benzo[1,4]oxazin-3-one] | 1240
CCOC(=O)N1CCN(Cc2ccc(CN3C(=O)COc4ccc(C=C5SC(=S)NC5=O)cc43)cc2)CC1 [Example 241, 4-{4-[3-Oxo-6-(4-oxo-2-thioxo-thiazolidin-5-ylidenemethyl)-2,3-dihydro-benzo[1,4]oxazin-4-ylmethyl]-benzyl}-piperazine-1-carboxylic acid ethyl ester] | 52
O=C1NC(=S)SC1=Cc1cc(F)c2c(c1)N(CCCN1CCCCC1)C(=O)CO2 [Example 243] | 180
CC1CC(C)CN(CCCN2C(=O)COc3c(F)cc(C=C4SC(=S)NC4=O)cc32)C1 (stereo not drawn) [Example 244, 4-[3-(3,5-Dimethyl-piperidin-1-yl)-propyl]-8-fluoro-6-(4-oxo-2-thioxo-thiazolidin-5-ylidenemethyl)-4H-benzo[1,4]oxazin-3-one] | 185
CC(C)N(CCCN1C(=O)COc2c(F)cc(C=C3SC(=S)NC3=O)cc21)C(C)C [Example 245, 4-(3-Diisopropylamino-propyl)-8-fluoro-6-(4-oxo-2-thioxo-thiazolidin-5-ylidenemethyl)-4H-benzo[1,4]oxazin-3-one] | 185

Compounds with a lower IC50, results first:

IC50 [nM] | Structure (SMILES)
3 | CN1CCN(Cc2ccc(CN3C(=O)COc4ccc(C=C5SC(=O)NC5=O)cc43)cc2)CC1 [Example 228, 5-{4-[4-(4-Methyl-piperazin-1-ylmethyl)-benzyl]-3-oxo-3,4-dihydro-2H-1,4-benzoxazin-6-ylmethylene}-thiazolidine-2,4-dione]
20 | Cc1cc(CN2C(=O)COc3ccc(C=C4SC(=S)NC4=O)cc32)cc(C)n1 [Example 229, 4-(2,6-Dimethyl-pyridin-4-ylmethyl)-6-(4-oxo-2-thioxo-thiazolidin-5-ylidenemethyl)-4H-1,4-benzoxazin-3-one]
43 | Cc1cc(CN2C(=O)COc3ccc(C=C4SC(=O)NC4=O)cc32)cc(C)n1 [Example 230, 5-[4-(2,6-Dimethyl-pyridin-4-ylmethyl)-3-oxo-3,4-dihydro-2H-1,4-benzoxazin-6-ylmethylene]-thiazolidine-2,4-dione]
35 | O=C1NC(=S)SC1=Cc1cc(F)c2c(c1)N(Cc1ccc(Cl)c(C(F)(F)F)c1)C(=O)CO2 [Example 233, 4-(4-Chloro-3-trifluoromethyl-benzyl)-8-fluoro-6-(4-oxo-2-thioxo-thiazolidin-5-ylidenemethyl)-4H-1,4-benzoxazin-3-one]
5 | CC(C)(C)c1cc(CN2C(=O)COc3c(F)cc(CC4SC(=S)NC4=O)cc32)cc(C(C)(C)O)c1 (stereo not drawn) [Example 236, 4-[3-tert-Butyl-5(1-hydroxy-1-methyl-ethyl)-benzyl]-8-fluoro-6-(4-oxo-2-thioxo-thazolidin-5-ylmethyl)-4H-benzo[1,4]oxazin-3-one]
6 | CC(C)(C)c1cc(CN2C(=O)COc3ccc(C=C4SC(=S)NC4=O)cc32)cc(C(C)(C)O)c1 [Example 237, 4-[3-tert-Butyl-5(1-hydroxy-1-methyl-ethyl)-benzyl]-6-(4-oxo-2-thioxo-thazolidin-5-ylmethyl)-4H-benzo[1,4]oxazin-3-one]
36 | O=C1NC(=S)SC1=Cc1ccc2c(c1)N(Cc1ccc(CN3CCC4(CCCCC4)CC3)cc1)C(=O)CO2 [Example 238, 4-[4-(3-Aza-spiro[5.5]undec-3-ylmethyl)-benzyl]-6-(4-oxo-2-thioxo-thiazolidin-5-ylidenemethyl)-4H-benzo[1,4]oxazin-3-one]
39 | O=C1NC(=O)C(=Cc2ccc3c(c2)N(Cc2ccc(CN4CCC5(CCCCC5)CC4)cc2)C(=O)CO3)S1 [Example 239, 5-{4-[4-(3-Aza-spiro[5.5]undec-3-ylmethyl)-benzyl]-3-oxo-3,4-dihydro-2H-benzo[1,4]oxazin-6-ylmethylene}-thiazolidine-2,4-dione]
32 | CCOC(=O)N1CCN(Cc2ccc(CN3C(=O)COc4ccc(C=C5SC(=O)NC5=O)cc43)cc2)CC1 [Example 240, 4-{4-[6-(2,4-Dioxo-thiazolidin-5-ylidenemethyl)-3-oxo-2,3-dihydro-1,4-benzoxazin-4-ylmethyl]-benzyl}-piperazine-1-carboxylic acid ethyl ester]
3 | O=C1NC(=O)C(=Cc2ccc3c(c2)N(Cc2ccc(Cl)c(Cl)c2)C(=O)CO3)S1 [Example 246, 5-[4-(3,4-Dichloro-benzyl)-3-oxo-3,4-dihydro-2H-benzo[1,4]oxazin-6-ylmethylene]-thiazolidine-2,4-dione]
10 | CC(C)(C)c1cc(CN2C(=O)COc3ccc(C=C4OC(=S)NC4=O)cc32)cc(C(C)(C)C)c1 [Example 247, 4-(3,5-Di-tert-butyl-benzyl)-6-(4-oxo-2-thioxo-oxazolidin-5-ylidenemethyl)-4H-1,4-benzoxazin-3-one]
21 | CC(=O)Oc1ccc(CN2C(=O)COc3ccc(C=C4SC(=S)NC4=O)cc32)cc1 [Example 248, Acetic acid 4-[3-oxo-6-(4-oxo-2-thioxo-thiazolidin-5-ylidenemethyl)-2,3-dihydro-1,4-benzoxazin-4-ylmethyl]-phenyl ester]
8 | O=C1NC(=O)C(=Cc2ccc3c(c2)N(Cc2ccc(OCc4ccccc4)cc2)C(=O)CO3)S1 [Example 249, 5-[4-(4-Benzyloxy-benzyl)-3-oxo-3,4-dihydro-2H-1,4-benzoxazin-6-ylmethylene]-thiazolidine-2,4-dione]
